Source: patent US20260226049A1, “NITROGEN-CONTAINING HETEROCYCLIC COMPOUND, PREPARATION METHOD THEREFOR, AND USE THEREOF” (BIVISION PHARMACEUTICALS, INC, priority 2023, published 2026)

System: HT1080 cell line with high FAP expression
Assay: ^68Ga labeling and animal imaging assay (PET/CT) in tumor-bearing mice
Type: in vivo
Design: Imaging data, Muscle / Imaging data, Bone / Imaging data, Bladder / Imaging data, Tumor / Imaging data, Intestine / Imaging data, Brain / Imaging data, Heart / Imaging data, Liver / Imaging data, Lung / Imaging data, Kidney: unit not given here
Settings: for uptake in the tumor at 3 hours: 3 hours after injection
Protocol: A. 1.0 mg of JHH7 precursor was weighed and dissolved in 0.1 M sodium acetate buffer to prepare a 1.0 mg/mL precursor solution.
B. The Ge/Ga generator was eluted stepwise with 5 mL of 0.1 M HCl, and the highest activity fraction (0.5 mL) was collected. 0.5 mL of metal-free 0.1 M sodium acetate buffer (pH=4.5) was added. In a 1.5 mL centrifuge tube as the reaction tube, a specific amount of precursor [1000 (molecular weight)/14.94 μL (precursor solution)/mCi (radionuclide)] was added, vortex-mixed for 10 s, and heated at 95° C., 800 rpm for 15 min.
C. The C18 Sep-Pak was activated with anhydrous ethanol, rinsed thoroughly with pure water, and the excess water was removed.
D. The solution after the reaction was passed through the C18 Sep-Pak, rinsed with pure water, and the excess water was removed. Subsequently, the C18 Sep-Pak was eluted with ethanol, collecting approximately 10 tubes with 3 drops per tube.
E. The final preparation should be a clear solution, prepared fresh for immediate use and limited to the same day.
1) The PET/CT was powered on according to the standard operating procedures, the scanning software was launched, and daily calibration was performed.
2) Animal anesthesia preparation was conducted, where tumor-bearing mice (supplied by Shanghai Alamo Pharmaceutical Technology Co., Ltd., HT1080 cell line with high FAP expression) were anesthetized using isoflurane.
3) After the loss of righting reflex in the tumor-bearing mice, the imaging agent was injected via the tail vein.
4) After drug administration, dynamic scanning at 1 hour and static scanning was performed at 3 hours were performed for 10 minutes.
5) During the process, animal body weight, injection dose, injection time, and residual dose were recorded according to the record sheet, and the time of measuring the injection dose and the time of measuring the residual dose were separately recorded.
6) The uptake in animal tumors, muscles, and other organs was analyzed using PMOD software.
^68Ga-labeled compounds JHH7 and JHH11 were imaged in tumor-bearing mice, and the results are shown in FIG. 5 and FIG. 6, with the imaging data shown in Tables 4 and 5.

[1] = tumor-bearing mice, intravenous injection

SMILES: N#C[C@@H]1CC(F)(F)CN1C(=O)CNC(=O)c1ccc2c(c1)CN(C(=O)CCC(=O)NCCNC(=O)CCC(C(=O)O)N1CCN(CC(=O)[O-])CCN(CC(=O)[O-])CCN(CC(=O)[O-])CC1)C2.[68Ga+3] (stereo partly drawn) [^68Ga-JHH7]
- Imaging data, Bladder (5 min): 3.02
- Imaging data, Bone (5 min): 0.17
- Imaging data, Brain (5 min): 0.90
- Imaging data, Heart (5 min): 4.61
- Imaging data, Intestine (5 min): 0.47
- Imaging data, Kidney (5 min): 6.73
- Imaging data, Liver (5 min): 1.71
- Imaging data, Lung (5 min): 1.78
- Imaging data, Muscle (5 min): 0.81
- Imaging data, Tumor (5 min): 0.91
- Imaging data, Bladder (10 min): 49.75
- Imaging data, Bone (10 min): 0.28
- Imaging data, Brain (10 min): 0.82
- Imaging data, Heart (10 min): 2.19
- Imaging data, Intestine (10 min): 0.21
- Imaging data, Kidney (10 min): 5.59
- Imaging data, Liver (10 min): 0.88
- Imaging data, Lung (10 min): 0.94
- Imaging data, Muscle (10 min): 1.56
- Imaging data, Tumor (10 min): 2.47
- Imaging data, Bladder (15 min): 84.10
- Imaging data, Bone (15 min): 0.30
- Imaging data, Brain (15 min): 0.59
- Imaging data, Heart (15 min): 1.43
- Imaging data, Intestine (15 min): 0.23
- Imaging data, Kidney (15 min): 3.87
- Imaging data, Liver (15 min): 0.50
- Imaging data, Lung (15 min): 0.79
- Imaging data, Muscle (15 min): 1.42
- Imaging data, Tumor (15 min): 3.36
- Imaging data, Bladder (20 min): 109.69
- Imaging data, Bone (20 min): 0.18
- Imaging data, Brain (20 min): 0.55
- Imaging data, Heart (20 min): 1.01
- Imaging data, Intestine (20 min): 0.22
- Imaging data, Kidney (20 min): 3.35
- Imaging data, Liver (20 min): 0.38
- Imaging data, Lung (20 min): 0.45
- Imaging data, Muscle (20 min): 1.30
- Imaging data, Tumor (20 min): 3.88
- Imaging data, Bladder (25 min): 145.55
- Imaging data, Bone (25 min): 0.17
- Imaging data, Brain (25 min): 0.48
- Imaging data, Heart (25 min): 0.94
- Imaging data, Intestine (25 min): 0.15
- Imaging data, Kidney (25 min): 2.74
- Imaging data, Liver (25 min): 0.23
- Imaging data, Lung (25 min): 0.28
- Imaging data, Muscle (25 min): 1.29
- Imaging data, Tumor (25 min): 4.70
- Imaging data, Bladder (30 min): 157.22
- Imaging data, Bone (30 min): 0.10
- Imaging data, Brain (30 min): 0.46
- Imaging data, Heart (30 min): 0.72
- Imaging data, Intestine (30 min): 0.16
- Imaging data, Kidney (30 min): 2.88
- Imaging data, Liver (30 min): 0.25
- Imaging data, Lung (30 min): 0.37
- Imaging data, Muscle (30 min): 0.97
- Imaging data, Tumor (30 min): 5.00
- Imaging data, Bladder (1.5 h): 89.40
- Imaging data, Bone (1.5 h): 0.53
- Imaging data, Brain (1.5 h): 0.23
- Imaging data, Heart (1.5 h): 0.45
- Imaging data, Intestine (1.5 h): 0.92
- Imaging data, Kidney (1.5 h): 0.71
- Imaging data, Liver (1.5 h): 0.52
- Imaging data, Lung (1.5 h): 0.54
- Imaging data, Muscle (1.5 h): 0.17
- Imaging data, Tumor (1.5 h): 6.40
- Imaging data, Bladder (3 h): 7.50
- Imaging data, Bone (3 h): 0.14
- Imaging data, Brain (3 h): 0.12
- Imaging data, Heart (3 h): 0.21
- Imaging data, Intestine (3 h): 0.60
- Imaging data, Kidney (3 h): 0.55
- Imaging data, Liver (3 h): 0.43
- Imaging data, Lung (3 h): 0.55
- Imaging data, Muscle (3 h): 0.19
- Imaging data, Tumor (3 h): 5.20
- uptake in the tumor at 3 hours: a certain amount of uptake in the tumor was still observed
- time of peak uptake in the tumor after injection [1]: 1.5 h

SMILES: N#C[C@@H]1CC(F)(F)CN1C(=O)CNC(=O)c1cc2c(s1)CCN(C(=O)CCC(=O)NCCNC(=O)CCNC(=O)CN1CCN(CC(=O)O)CCN(CC(=O)O)CCN(CC(=O)O)CC1)C2 [^68Ga-JHH11, metal not drawn]
- Imaging data, Bladder (5 min): 4.24
- Imaging data, Bone (5 min): 0.92
- Imaging data, Brain (5 min): 0.98
- Imaging data, Heart (5 min): 8.61
- Imaging data, Intestine (5 min): 1.96
- Imaging data, Kidney (5 min): 13.43
- Imaging data, Liver (5 min): 5.43
- Imaging data, Lung (5 min): 3.12
- Imaging data, Muscle (5 min): 0.82
- Imaging data, Tumor (5 min): 1.06
- Imaging data, Bladder (10 min): 17.03
- Imaging data, Bone (10 min): 1.68
- Imaging data, Brain (10 min): 0.66
- Imaging data, Heart (10 min): 4.33
- Imaging data, Intestine (10 min): 1.99
- Imaging data, Kidney (10 min): 15.81
- Imaging data, Liver (10 min): 3.56
- Imaging data, Lung (10 min): 2.08
- Imaging data, Muscle (10 min): 1.22
- Imaging data, Tumor (10 min): 2.47
- Imaging data, Bladder (15 min): 27.04
- Imaging data, Bone (15 min): 1.17
- Imaging data, Brain (15 min): 0.59
- Imaging data, Heart (15 min): 3.22
- Imaging data, Intestine (15 min): 1.66
- Imaging data, Kidney (15 min): 20.15
- Imaging data, Liver (15 min): 2.78
- Imaging data, Lung (15 min): 1.97
- Imaging data, Muscle (15 min): 1.16
- Imaging data, Tumor (15 min): 3.26
- Imaging data, Bladder (20 min): 45.38
- Imaging data, Bone (20 min): 1.08
- Imaging data, Brain (20 min): 0.55
- Imaging data, Heart (20 min): 2.72
- Imaging data, Intestine (20 min): 1.54
- Imaging data, Kidney (20 min): 13.33
- Imaging data, Liver (20 min): 2.44
- Imaging data, Lung (20 min): 1.88
- Imaging data, Muscle (20 min): 0.98
- Imaging data, Tumor (20 min): 3.87
- Imaging data, Bladder (25 min): 60.89
- Imaging data, Bone (25 min): 1.22
- Imaging data, Brain (25 min): 0.45
- Imaging data, Heart (25 min): 2.29
- Imaging data, Intestine (25 min): 1.30
- Imaging data, Kidney (25 min): 8.42
- Imaging data, Liver (25 min): 2.16
- Imaging data, Lung (25 min): 1.47
- Imaging data, Muscle (25 min): 0.75
- Imaging data, Tumor (25 min): 4.30
- Imaging data, Bladder (30 min): 73.70
- Imaging data, Bone (30 min): 0.82
- Imaging data, Brain (30 min): 0.41
- Imaging data, Heart (30 min): 1.98
- Imaging data, Intestine (30 min): 1.22
- Imaging data, Kidney (30 min): 5.54
- Imaging data, Liver (30 min): 2.05
- Imaging data, Lung (30 min): 1.48
- Imaging data, Muscle (30 min): 0.65
- Imaging data, Tumor (30 min): 4.60
- Imaging data, Bladder (1.5 h): 265.50
- Imaging data, Bone (1.5 h): 0.50
- Imaging data, Brain (1.5 h): 0.03
- Imaging data, Heart (1.5 h): 0.20
- Imaging data, Intestine (1.5 h): 0.62
- Imaging data, Kidney (1.5 h): 1.00
- Imaging data, Liver (1.5 h): 0.78
- Imaging data, Lung (1.5 h): 0.58
- Imaging data, Muscle (1.5 h): 0.37
- Imaging data, Tumor (1.5 h): 4.40
- Imaging data, Bladder (3 h): 4.50
- Imaging data, Bone (3 h): 0.02
- Imaging data, Brain (3 h): 0.04
- Imaging data, Heart (3 h): 0.12
- Imaging data, Intestine (3 h): 0.08
- Imaging data, Kidney (3 h): 0.46
- Imaging data, Liver (3 h): 0.82
- Imaging data, Lung (3 h): 0.25
- Imaging data, Muscle (3 h): 0.08
- Imaging data, Tumor (3 h): 2.30
- uptake in the tumor at 3 hours: tumor uptake was still observed
- metabolism and excretion from the mice (after injection): rapidly metabolized and excreted from the mice
- time of peak tumor uptake after injection [1]: 30 min
